# Patent US20240208954A1, “OXADIAZOLE COMPOUND, PREPARATION METHOD THEREFOR, PHARMACEUTICAL COMPOSITION AND USE THEREOF” (SHANGHAI INSTITUTE OF MATERIA MEDICA, CHINESE ACADEMY OF …, priority 2020, published 2024)
# Several values for one entry are separate records, joined by “and”; a condition that tells them apart may be missing. Identical values can stand only once. Like-named read-outs stand apart in the source and are kept apart here.
# Key:
# [1] = biological target: S1P2 (Homo sapiens, UniProt O95136); experiment: Subtype selectivity study, method of Experimental Example 1; type: cell-based
# Protocol: Experimental method: CHO-K1/Ga15/EDG1 cells stably expressing EDG1 receptor were cultured in a 10 cm culture dish in a 37° C./5% CO2incubator, and digested when the confluence rate reached 80%-85%. The cells in collected cell suspension were inoculated into 384 microtiter plates at appropriate density, and then placed in a 37° C./5% CO2 incubator and continue to incubate for at least 18 hours before using for experiments. After 18-20 hours, the cell culture plat was taken out and added with dye working solution, and then the plate was placed in a 37° C./5% CO2 incubator for 1 hour, and finally equilibrated at room temperature for 15 minutes. Positive agonist working solution was added, and RFU values were detected and recorded. The 384 microplates, cell plates and tip box with positive agonist working solution were placed into FLIPRTM TETRA and the agonist mode assay program was run with an overall assay time of 120 seconds. The positive agonist working fluid was added to the cell culture plate at the 21st second. 384 microplate, cell plate and gun head box containing the positive antagonist working fluid were put into the FLIPRTM TETRA. The antagonistic mode detection program, the overall detection time of the instrument was 120 seconds, and positive antagonist working solution was added to the cell culture plate at the 21st second. Data processing: Raw data were obtained via ScreenWorks (version 3.1) and saved as *FMD files on the […] computer network system. Data were collected and analyzed using Excel and GraphPad Prism 6 software programs. […] The four-parameter equation was as follows: y=Bottom+(Top-Bottom)/(1+10^((LogEC50/IC50-X)*HillSlope)), wherein X is the Log value of the concentration and Y was the inhibition rate. The S1P receptor selectivity was tested for different subtypes using the method described in Experimental Example 1.
# [2] = Preliminary assessment of pharmacokinetics in mice; type: in vivo, CD-1 mice
# Protocol: Dosing Regimen 9 CD-1 mice, male, weighing 20-26 g, were randomly divided into 3 groups with 3 mice in each group. The test compounds were administered intragastric, intravenously or intraperitoneally according to the following protocol. The mice were fasted for 12 h before the test and drank water freely. Food was consumed uniformly 2 h after administration. [table] The intragastric administration solution was prepared with DMSO/0.5% HPMC(5/95, v/v) to the final concentration. Intravenous and intraperitoneal administration solution was formulated with DMSO/PEG300/EtOH/NaCl(5/40/5/50, v/v/v). The sample of the administration solution was left (50 μL of the solution was mixed with 50 μL of DMSO before and after the administration, respectively) for test. The drug was given according to the above dose, the time of administration was recorded, and 20 μL of blood was taken from the femoral plexus of mice at the above set time points and placed in heparinized tubes. The blood was immediately centrifuged at 11000 rpm for 5 min. 10 μL of plasma was immediately and accurately sucked into a centrifuge tube prefilled with 100 μL of PK-IS solution (prepared with methanol: acetonitrile (1:1,v/v)), well mixed, and freezed at −20° C. for test.
# S1P2, sequence (O95136 whole entry, species assumed): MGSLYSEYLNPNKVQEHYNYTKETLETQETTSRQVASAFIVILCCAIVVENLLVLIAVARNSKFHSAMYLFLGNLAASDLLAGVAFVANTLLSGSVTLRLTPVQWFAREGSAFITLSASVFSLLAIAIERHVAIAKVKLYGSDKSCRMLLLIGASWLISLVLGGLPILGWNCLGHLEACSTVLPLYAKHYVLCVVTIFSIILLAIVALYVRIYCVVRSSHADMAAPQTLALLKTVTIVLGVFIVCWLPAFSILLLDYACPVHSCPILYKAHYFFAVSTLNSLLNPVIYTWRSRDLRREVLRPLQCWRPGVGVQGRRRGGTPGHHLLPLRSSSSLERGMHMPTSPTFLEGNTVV
structure (smiles),measurement,setting,value
"CC(C)Oc1ccc(-c2nc(-c3ccc(CN4CC(C(=O)O)C4)c4ccccc34)no2)cc1C#N.Cl [Compound A1, 1-((4-(5-(3-cyano-4-isopropoxyphenyl)-1,2,4-oxadiazol-3-yl)naphthalen-1-yl)methyl) azetidine-3-carboxylic acid hydrochloric acid]",EC50,[1],> 10 µM
same,Concentration of A1 Drug in Plasma of Mice,"[2]; intraperitoneal injection 20 mg/kg, 0.05 h, individual animals 4-6, 20 mg/kg",1105 ng/mL and 473 ng/mL and 715 ng/mL
same,Concentration of A1 Drug in Plasma of Mice,"[2]; intraperitoneal injection 20 mg/kg, 0.25 h, individual animals 4-6, 20 mg/kg",827 ng/mL and 1507 ng/mL
same,Concentration of A1 Drug in Plasma of Mice,"[2]; intraperitoneal injection 20 mg/kg, 0.75 h, individual animals 4-6, 20 mg/kg",1206 ng/mL and 1534 ng/mL and 3318 ng/mL
same,Concentration of A1 Drug in Plasma of Mice,"[2]; intraperitoneal injection 20 mg/kg, 2.00 h, individual animals 4-6, 20 mg/kg",516 ng/mL and 1443 ng/mL and 4405 ng/mL
same,Concentration of A1 Drug in Plasma of Mice,"[2]; intraperitoneal injection 20 mg/kg, 4.00 h, individual animals 4-6, 20 mg/kg",376 ng/mL and 201 ng/mL and 535 ng/mL
same,Concentration of A1 Drug in Plasma of Mice,"[2]; intraperitoneal injection 20 mg/kg, 8.00 h, individual animals 4-6, 20 mg/kg",273 ng/mL and 78.2 ng/mL and 119 ng/mL
same,Concentration of A1 Drug in Plasma of Mice,"[2]; intraperitoneal injection 20 mg/kg, 24.0 h, individual animals 4-6, 20 mg/kg",86.9 ng/mL and 26.5 ng/mL and 35.0 ng/mL
same,concentration at 0.25 h,"[2]; male, CD-1, mouse, plasma, intraperitoneal, 20 mg/kg, title: intraperitoneal 20 mg/kg, 0.25 h, mean, read-out: Concentration of A1 Drug in Plasma of Mice",1740 ng/mL
same,concentration at 0.5 h,"[2]; male, CD-1, mouse, plasma, intraperitoneal, 20 mg/kg, title: intraperitoneal 20 mg/kg, 0.50 h, mean, read-out: Concentration of A1 Drug in Plasma of Mice",2160 ng/mL
same,concentration at 1 h,"[2]; male, CD-1, mouse, plasma, intraperitoneal, 20 mg/kg, title: intraperitoneal 20 mg/kg, 1.00 h, mean, read-out: Concentration of A1 Drug in Plasma of Mice",2600 ng/mL
same,concentration at 2 h,"[2]; male, CD-1, mouse, plasma, intraperitoneal, 20 mg/kg, title: intraperitoneal 20 mg/kg, 2.00 h, mean, read-out: Concentration of A1 Drug in Plasma of Mice",1180 ng/mL
same,concentration at 4 h,"[2]; male, CD-1, mouse, plasma, intraperitoneal, 20 mg/kg, title: intraperitoneal 20 mg/kg, 4.00 h, mean, read-out: Concentration of A1 Drug in Plasma of Mice",142 ng/mL
same,concentration at 8 h,"[2]; male, CD-1, mouse, plasma, intraperitoneal, 20 mg/kg, title: intraperitoneal 20 mg/kg, 8.00 h, mean, read-out: Concentration of A1 Drug in Plasma of Mice",24.6 ng/mL
same,concentration at 24 h,"[2]; male, CD-1, mouse, plasma, intraperitoneal, 20 mg/kg, title: intraperitoneal 20 mg/kg, 24.0 h, individual animals 1-3, read-out: Concentration of A1 Drug in Plasma of Mice",4.8 ng/mL
same,concentration at 24 h,"[2]; male, CD-1, mouse, plasma, intraperitoneal, 20 mg/kg, title: intraperitoneal 20 mg/kg, 24.0 h, mean, read-out: Concentration of A1 Drug in Plasma of Mice",4.13 ng/mL
same,concentration at 0.05 h,"[2]; male, CD-1, mouse, plasma, ip, 20 mg/kg, intraperitoneal injection 20 mg/kg, 0.05 h, mean, read-out: Concentration of A1 Drug in Plasma of Mice",764 ng/mL
same,concentration at 0.25 h,"[2]; male, CD-1, mouse, plasma, ip, 20 mg/kg, intraperitoneal injection 20 mg/kg, 0.25 h, individual animals 4-6, read-out: Concentration of A1 Drug in Plasma of Mice",1170 ng/mL
same,concentration at 0.25 h,"[2]; male, CD-1, mouse, plasma, ip, 20 mg/kg, intraperitoneal injection 20 mg/kg, 0.25 h, mean, read-out: Concentration of A1 Drug in Plasma of Mice",1170 ng/mL
same,concentration at 0.75 h,"[2]; male, CD-1, mouse, plasma, ip, 20 mg/kg, intraperitoneal injection 20 mg/kg, 0.75 h, mean, read-out: Concentration of A1 Drug in Plasma of Mice",2020 ng/mL
same,concentration at 2 h,"[2]; male, CD-1, mouse, plasma, ip, 20 mg/kg, intraperitoneal injection 20 mg/kg, 2.00 h, mean, read-out: Concentration of A1 Drug in Plasma of Mice",2120 ng/mL
same,concentration at 4 h,"[2]; male, CD-1, mouse, plasma, ip, 20 mg/kg, intraperitoneal injection 20 mg/kg, 4.00 h, mean, read-out: Concentration of A1 Drug in Plasma of Mice",370 ng/mL
same,concentration at 8 h,"[2]; male, CD-1, mouse, plasma, ip, 20 mg/kg, intraperitoneal injection 20 mg/kg, 8.00 h, mean, read-out: Concentration of A1 Drug in Plasma of Mice",157 ng/mL
same,concentration at 24 h,"[2]; male, CD-1, mouse, plasma, ip, 20 mg/kg, intraperitoneal injection 20 mg/kg, 24.0 h, mean, read-out: Concentration of A1 Drug in Plasma of Mice",49.5 ng/mL
same,concentration at 0.05 h,"[2]; male, CD-1, mouse, plasma, po, 2 mg/kg, title: oral 2 mg/kg, 0.05 h, individual animals 4-6, read-out: Concentration of A1 Drug in Plasma of Mice",1790 ng/mL
same,concentration at 0.05 h,"[2]; male, CD-1, mouse, plasma, po, 2 mg/kg, title: oral 2 mg/kg, 0.05 h, mean, read-out: Concentration of A1 Drug in Plasma of Mice",1940 ng/mL
same,concentration at 0.25 h,"[2]; male, CD-1, mouse, plasma, po, 2 mg/kg, title: oral 2 mg/kg, 0.25 h, individual animals 4-6, read-out: Concentration of A1 Drug in Plasma of Mice",1040 ng/mL
same,concentration at 0.25 h,"[2]; male, CD-1, mouse, plasma, po, 2 mg/kg, title: oral 2 mg/kg, 0.25 h, mean, read-out: Concentration of A1 Drug in Plasma of Mice",878 ng/mL
same,concentration at 0.75 h,"[2]; male, CD-1, mouse, plasma, po, 2 mg/kg, title: oral 2 mg/kg, 0.75 h, individual animals 4-6, read-out: Concentration of A1 Drug in Plasma of Mice",178 ng/mL
same,concentration at 0.75 h,"[2]; male, CD-1, mouse, plasma, po, 2 mg/kg, title: oral 2 mg/kg, 0.75 h, mean, read-out: Concentration of A1 Drug in Plasma of Mice",169 ng/mL
same,concentration at 2 h,"[2]; male, CD-1, mouse, plasma, po, 2 mg/kg, title: oral 2 mg/kg, 2.00 h, individual animals 4-6, read-out: Concentration of A1 Drug in Plasma of Mice",49.2 ng/mL
same,concentration at 2 h,"[2]; male, CD-1, mouse, plasma, po, 2 mg/kg, title: oral 2 mg/kg, 2.00 h, mean, read-out: Concentration of A1 Drug in Plasma of Mice",49.8 ng/mL
same,concentration at 4 h,"[2]; male, CD-1, mouse, plasma, po, 2 mg/kg, title: oral 2 mg/kg, 4.00 h, mean, read-out: Concentration of A1 Drug in Plasma of Mice",8.43 ng/mL
same,concentration at 8 h,"[2]; male, CD-1, mouse, plasma, po, 2 mg/kg, title: oral 2 mg/kg, 8.00 h, mean, read-out: Concentration of A1 Drug in Plasma of Mice",3.97 ng/mL
same,concentration at 24 h,"[2]; male, CD-1, mouse, plasma, po, 2 mg/kg, title: oral 2 mg/kg, 24.0 h, individual animals 4-6, read-out: Concentration of A1 Drug in Plasma of Mice",0.5 ng/mL
same,concentration at 24 h,"[2]; male, CD-1, mouse, plasma, po, 2 mg/kg, title: oral 2 mg/kg, 24.0 h, mean, read-out: Concentration of A1 Drug in Plasma of Mice",0.6 ng/mL
same,Concentration of A1 Drug in Plasma of Mice,"[2]; title: intraperitoneal 20 mg/kg, 0.25 h, individual animals 1-3",1095 ng/mL and 1070 ng/mL and 3041 ng/mL
same,Concentration of A1 Drug in Plasma of Mice,"[2]; title: intraperitoneal 20 mg/kg, 0.50 h, individual animals 1-3",1574 ng/mL and 1388 ng/mL and 3514 ng/mL
same,Concentration of A1 Drug in Plasma of Mice,"[2]; title: intraperitoneal 20 mg/kg, 1.00 h, individual animals 1-3",1914 ng/mL and 1843 ng/mL and 4055 ng/mL
same,Concentration of A1 Drug in Plasma of Mice,"[2]; title: intraperitoneal 20 mg/kg, 2.00 h, individual animals 1-3",571 ng/mL and 1318 ng/mL and 1662 ng/mL
same,Concentration of A1 Drug in Plasma of Mice,"[2]; title: intraperitoneal 20 mg/kg, 4.00 h, individual animals 1-3",146 ng/mL and 215 ng/mL and 65.0 ng/mL
same,Concentration of A1 Drug in Plasma of Mice,"[2]; title: intraperitoneal 20 mg/kg, 8.00 h, individual animals 1-3",25.8 ng/mL and 36.4 ng/mL and 11.5 ng/mL
same,Concentration of A1 Drug in Plasma of Mice,"[2]; title: intraperitoneal 20 mg/kg, 24.0 h, individual animals 1-3",3.80 ng/mL
same,Concentration of A1 Drug in Plasma of Mice,"[2]; title: oral 2 mg/kg, 0.05 h, individual animals 4-6, 2 mg/kg",1521 ng/mL and 2513 ng/mL
same,Concentration of A1 Drug in Plasma of Mice,"[2]; title: oral 2 mg/kg, 0.25 h, individual animals 4-6, 2 mg/kg",572 ng/mL and 1021 ng/mL
same,Concentration of A1 Drug in Plasma of Mice,"[2]; title: oral 2 mg/kg, 0.75 h, individual animals 4-6, 2 mg/kg",113 ng/mL and 216 ng/mL
same,Concentration of A1 Drug in Plasma of Mice,"[2]; title: oral 2 mg/kg, 2.00 h, individual animals 4-6, 2 mg/kg",39.5 ng/mL and 60.6 ng/mL
same,Concentration of A1 Drug in Plasma of Mice,"[2]; title: oral 2 mg/kg, 4.00 h, individual animals 4-6, 2 mg/kg",8.60 ng/mL and 11.5 ng/mL and 5.20 ng/mL
same,Concentration of A1 Drug in Plasma of Mice,"[2]; title: oral 2 mg/kg, 8.00 h, individual animals 4-6, 2 mg/kg",8.70 ng/mL and 2.10 ng/mL and 1.10 ng/mL
same,Concentration of A1 Drug in Plasma of Mice,"[2]; title: oral 2 mg/kg, 24.0 h, individual animals 4-6, 2 mg/kg",0.800 ng/mL and 0.500 ng/mL
